Measurements: the NIST ThermoML archive (doi:10.1021/je049572f)

Test: xn = mol fraction of the nth substance listed
Conditions: 101.33 kPa, Liquid

C=Cc1ccccc1 [styrene] + CCCCCCCC
Conditions | mass density [kg/m3] | viscosity [mPa·s]
293.15 K, x1 = 0.1085 | 719.52 | 0.537
293.15 K, x1 = 0.2151 | 736.18 | 0.537
293.15 K, x1 = 0.3202 | 753.7 | 0.541
293.15 K, x1 = 0.4223 | 772.01 | 0.551
293.15 K, x1 = 0.523 | 791.51 | 0.565
293.15 K, x1 = 0.622 | 812.07 | 0.593
293.15 K, x1 = 0.7189 | 833.64 | 0.619
293.15 K, x1 = 0.8145 | 856.59 | 0.649
293.15 K, x1 = 0.9081 | 880.84 | 0.694
293.15 K, x1 = 1 | 906.29 | 0.749
298.15 K, x1 = 0.1085 | 715.45 | 0.502
298.15 K, x1 = 0.2151 | 732.06 | 0.508
298.15 K, x1 = 0.3202 | 749.53 | 0.51
298.15 K, x1 = 0.4223 | 767.81 | 0.518
298.15 K, x1 = 0.523 | 787.27 | 0.533
298.15 K, x1 = 0.622 | 807.78 | 0.56
298.15 K, x1 = 0.7189 | 829.3 | 0.576
298.15 K, x1 = 0.8145 | 852.22 | 0.608
298.15 K, x1 = 0.9081 | 876.43 | 0.647
298.15 K, x1 = 1 | 901.86 | 0.699
303.15 K, x1 = 0.1085 | 711.38 | 0.475
303.15 K, x1 = 0.2151 | 727.94 | 0.477
303.15 K, x1 = 0.3202 | 745.38 | 0.48
303.15 K, x1 = 0.4223 | 763.63 | 0.489
303.15 K, x1 = 0.523 | 783.03 | 0.503
303.15 K, x1 = 0.622 | 803.5 | 0.527
303.15 K, x1 = 0.7189 | 824.98 | 0.544
303.15 K, x1 = 0.8145 | 847.87 | 0.571
303.15 K, x1 = 0.9081 | 872.03 | 0.609
303.15 K, x1 = 1 | 897.45 | 0.654
313.15 K, x1 = 0.1085 | 703.13 | 0.423
313.15 K, x1 = 0.2151 | 719.6 | 0.427
313.15 K, x1 = 0.3202 | 737 | 0.431
313.15 K, x1 = 0.4223 | 755.16 | 0.439
313.15 K, x1 = 0.523 | 774.46 | 0.451
313.15 K, x1 = 0.622 | 794.86 | 0.48
313.15 K, x1 = 0.7189 | 816.28 | 0.486
313.15 K, x1 = 0.8145 | 839.09 | 0.511
313.15 K, x1 = 0.9081 | 863.15 | 0.541
313.15 K, x1 = 1 | 888.53 | 0.577
323.15 K, x1 = 0.1085 | 694.84 | 0.381
323.15 K, x1 = 0.2151 | 711.23 | 0.385
323.15 K, x1 = 0.3202 | 728.58 | 0.388
323.15 K, x1 = 0.4223 | 746.66 | 0.396
323.15 K, x1 = 0.523 | 765.88 | 0.406
323.15 K, x1 = 0.622 | 786.22 | 0.427
323.15 K, x1 = 0.7189 | 807.56 | 0.437
323.15 K, x1 = 0.8145 | 830.31 | 0.46
323.15 K, x1 = 0.9081 | 854.31 | 0.484
323.15 K, x1 = 1 | 879.62 | 0.513
333.15 K, x1 = 0.1085 | 686.43 | 0.351
333.15 K, x1 = 0.2151 | 702.74 | 0.351
333.15 K, x1 = 0.3202 | 720.06 | 0.352
333.15 K, x1 = 0.4223 | 738.07 | 0.359
333.15 K, x1 = 0.523 | 757.21 | 0.368
333.15 K, x1 = 0.622 | 777.49 | 0.387
333.15 K, x1 = 0.7189 | 798.77 | 0.395
333.15 K, x1 = 0.8145 | 821.46 | 0.413
333.15 K, x1 = 0.9081 | 845.37 | 0.438
333.15 K, x1 = 1 | 870.64 | 0.462
343.15 K, x1 = 0.1085 | 677.99 | 0.321
343.15 K, x1 = 0.2151 | 694.24 | 0.325
343.15 K, x1 = 0.3202 | 711.51 | 0.322
343.15 K, x1 = 0.4223 | 729.46 | 0.328
343.15 K, x1 = 0.523 | 748.55 | 0.337
343.15 K, x1 = 0.622 | 768.75 | 0.355
343.15 K, x1 = 0.7189 | 789.97 | 0.362
343.15 K, x1 = 0.8145 | 812.63 | 0.376
343.15 K, x1 = 0.9081 | 836.5 | 0.398
343.15 K, x1 = 1 | 861.72 | 0.419
353.15 K, x1 = 0.1085 | 669.39 | 0.293
353.15 K, x1 = 0.2151 | 685.6 | 0.295
353.15 K, x1 = 0.3202 | 702.81 | 0.295
353.15 K, x1 = 0.4223 | 720.71 | 0.301
353.15 K, x1 = 0.523 | 739.76 | 0.308
353.15 K, x1 = 0.622 | 759.93 | 0.322
353.15 K, x1 = 0.7189 | 781.11 | 0.333
353.15 K, x1 = 0.8145 | 803.68 | 0.349
353.15 K, x1 = 0.9081 | 827.51 | 0.362
353.15 K, x1 = 1 | 852.68 | 0.381
363.15 K, x1 = 0.1085 | 660.98 | 0.27
363.15 K, x1 = 0.2151 | 677.15 | 0.268
363.15 K, x1 = 0.3202 | 694.32 | 0.273
363.15 K, x1 = 0.4223 | 712.19 | 0.277
363.15 K, x1 = 0.523 | 731.2 | 0.285
363.15 K, x1 = 0.622 | 751.34 | 0.294
363.15 K, x1 = 0.7189 | 772.48 | 0.304
363.15 K, x1 = 0.8145 | 795.04 | 0.318
363.15 K, x1 = 0.9081 | 818.82 | 0.333
363.15 K, x1 = 1 | 843.99 | 0.349

O=S1(=O)CCCC1 [sulfolane] + CCc1ccccc1
Conditions | mass density [kg/m3] | viscosity [mPa·s]
303.15 K, x2 = 0 | 1260.8 | 10.07
303.15 K, x2 = 0.1118 | 1209.27 | 6.224
303.15 K, x2 = 0.2205 | 1160.4 | 4.155
303.15 K, x2 = 0.3267 | 1114.66 | 2.942
303.15 K, x2 = 0.4301 | 1071.65 | 2.185
303.15 K, x2 = 0.5309 | 1031.19 | –
303.15 K, x2 = 0.6293 | 993.33 | 1.324
303.15 K, x2 = 0.7254 | 957.17 | 1.057
303.15 K, x2 = 0.8194 | 923.09 | 0.861
303.15 K, x2 = 0.9106 | 890.45 | 0.716
313.15 K, x2 = 0 | 1251.9 | 7.808
313.15 K, x2 = 0.1118 | 1200.44 | 4.943
313.15 K, x2 = 0.2205 | 1151.53 | 3.385
313.15 K, x2 = 0.3267 | 1105.77 | 2.452
313.15 K, x2 = 0.4301 | 1062.77 | 1.835
313.15 K, x2 = 0.5309 | 1022.32 | –
313.15 K, x2 = 0.6293 | 984.45 | 1.135
313.15 K, x2 = 0.7254 | 948.31 | 0.924
313.15 K, x2 = 0.8194 | 914.23 | 0.757
313.15 K, x2 = 0.9106 | 881.6 | 0.632
323.15 K, x2 = 0 | 1243.36 | 6.194
323.15 K, x2 = 0.1118 | 1191.64 | 4.007
323.15 K, x2 = 0.2205 | 1142.7 | 2.801
323.15 K, x2 = 0.3267 | 1096.92 | 2.048
323.15 K, x2 = 0.4301 | 1053.9 | 1.561
323.15 K, x2 = 0.5309 | 1013.47 | 1.136
323.15 K, x2 = 0.6293 | 975.58 | 0.993
323.15 K, x2 = 0.7254 | 939.43 | 0.813
323.15 K, x2 = 0.8194 | 905.36 | 0.66
323.15 K, x2 = 0.9106 | 872.72 | 0.564
333.15 K, x2 = 0 | 1234.62 | 5.009
333.15 K, x2 = 0.1118 | 1182.85 | 3.33
333.15 K, x2 = 0.2205 | 1133.86 | 2.35
333.15 K, x2 = 0.3267 | 1088.06 | 1.763
333.15 K, x2 = 0.4301 | 1045.02 | 1.347
333.15 K, x2 = 0.5309 | 1004.57 | –
333.15 K, x2 = 0.6293 | 966.66 | 0.876
333.15 K, x2 = 0.7254 | 930.5 | 0.724
333.15 K, x2 = 0.8194 | 896.41 | 0.597
333.15 K, x2 = 0.9106 | 863.76 | 0.505
343.15 K, x2 = 0 | 1225.92 | 4.126
343.15 K, x2 = 0.1118 | 1173.93 | 2.796
343.15 K, x2 = 0.2205 | 1124.89 | 2.005
343.15 K, x2 = 0.3267 | 1079.06 | 1.541
343.15 K, x2 = 0.4301 | 1036.02 | 1.177
343.15 K, x2 = 0.5309 | 995.54 | 0.882
343.15 K, x2 = 0.6293 | 957.62 | 0.772
343.15 K, x2 = 0.7254 | 921.43 | 0.646
343.15 K, x2 = 0.8194 | 887.32 | 0.536
343.15 K, x2 = 0.9106 | 854.67 | 0.459
353.15 K, x2 = 0 | 1216.8 | 3.44
353.15 K, x2 = 0.1118 | 1165.14 | 2.371
353.15 K, x2 = 0.2205 | 1116.08 | 1.736
353.15 K, x2 = 0.3267 | 1070.18 | 1.319
353.15 K, x2 = 0.4301 | 1027.1 | 1.039
353.15 K, x2 = 0.5309 | 986.58 | 0.785
353.15 K, x2 = 0.6293 | 948.63 | 0.692
353.15 K, x2 = 0.7254 | 912.4 | 0.583
353.15 K, x2 = 0.8194 | 878.28 | 0.484
353.15 K, x2 = 0.9106 | 845.58 | 0.417
